In patent publication US20250177566A1, “USE OF CHEMICAL EPIGENETIC MODIFIERS TO MODULATE GENE EXPRESSION” (The University of North Carolina at Chapel Hill, priority 2022, published 2025):

Columns and labels:
Assay type in all cases: cell-based, human
CXCR4 protein = experiment: CXCR4 cell membrane protein expression in HCT116 (APC anti-CXCR4 antibody, flow cytometry); settings: for fold change, CXCR4 protein (CXCR4 gRNA vs NT gRNA): FIG. 3E, 7B-7D
Procedure: In addition, the change in CXCR4 protein expression was evaluated following CEM207 treatment at three different concentrations. CEM207 was chosen over CEM203 because of the lower concentration needed to reach a similar peak CXCR4 mRNA activation level. An APC anti-CXCR4 antibody was used to assess cell membrane CXCR4 protein expression via flow cytometry in dCas9 and MS2-FKBP*x2 stably infected HCT116 cells (FIG. 3E and FIGS. 7B-7D). CXCR4 protein levels were determined at 24, 48, and 72 hrs time points for each of the different concentrations of CEM207. […] Based on this protein expression data, it was concluded that the SLF*-CEMa technology can achieve effective gene-specific, dose-dependent activation at the mRNA and protein level.

HCT116 cells = experiment: alamarBlue cell viability assay, HCT116
Procedure: (§1) FIGS. 8A-8B show alamarBlue cell viability assays. HEK293T or HCT116 cells were plated in 96-well plates 24 hrs before chemical treatment of 0.001, 0.01, 0.1, 1, 10, 50, and 100 μM CEM207 was added. Another group of cells were treated with all concentrations of CEM207 mentioned above along with 200 nM CEM87 in all samples. After 4 days of chemical exposure, cell growth was measured by fluorescence. […] HCT116 cells were stably infected with dCas9 and MS2-FKBP*x2 constructs and transfected with CXCR4 gRNA. After 24 hrs of 25 nM CEM207 treatment, ChIP-qPCR was performed at different base pair distances from the transcription start site of CXCR4 gene. […] Error bars represent the standard deviation.
(§2) AlamarBlue cell viability assay. HEK293T or HCT116 cells were placed in black 96-well plates with clear bottom. 24 hrs later, media was exchanged to include 0.001, 0.01, 0.1, 1, 10, 50, 100 μM concentrations of CEM207, or all CEM207 concentrations above along with 200 nM CEM87. After 4 days of chemical exposure, alamarBlue Cell Viability Reagent (Invitrogen, DAL1025) was added to each well. Cells were incubated at 37° C. for 4 hrs and fluorescence was read using the TECAN Infinite F200 Fluorescence Microplate Reader. IC50 values were calculated using GraphPad Prism 9.

HEK293T cells = experiment: alamarBlue cell viability assay, HEK293T
Procedure: as §1, §2

[1] = tested on: rAAV2 transgene expression (firefly luciferase); experiment: rAAV2 SLF* CEM system dual luciferase assay, HEK293T Renilla, multiplicity of infection; settings: FIGS. 14B and 14C; 0, 10 or 100 nM CEM207; increasing vg/cell
Description: (§3) It was investigated whether rAAV transgene expression can be epigenetically controlled. Rapid screening of CEM technology can be performed with dual liucierase assays. (FIG. 10). Briefly, a cell line can be stably transduced with Ef1a-Renilla, enabling normalization to cell number. The cells are then either infected with AAV or tranfected with plasmid and dosed with a chemical epigenetic modifier. Luminescence can then be measured with the Dual Lucieferase Reporter, commercially available from Promega. This approach is described in more detail in the methods section of the example. Gene activation can be described as normalized luciferase or fold change. A measure of total gene expression can be calculated by
Next, it was determined whether SLF*CEMs can regulate AAV. The cassette shown in FIG. 14A was inserted into rAAV2 and infected into HEK293T Renilla. […] Next, it was explored whether the cassette was truly modular by varying the promoter while retaining SLF* CEM successful activation of rAAV2. […]
Day 4 (72 h): Data was obtained using the Promega Dula Luciferase Reporter (DLR) assay: first, the cells were washed with 100 μL of PBS/well dropwise followed by 20 μL of 1× passive lysis buffer (PLB) added to each well. The cells were incubated for 15 minutes in PLB and the assay ran on pheraSTAR microplate reader with 100 μL of each DLR reagent, gain=3600.

[2] = tested on: AAV transgene expression (firefly luciferase); experiment: AAV regulation with first generation CEM, dual luciferase assay, HEK293T Renilla; settings: FIG. 12, 50, 200, 500, 1000 nM
Description: as §3
(§4) Preliminary regulation of AAV with first generation CEMs is depicted in FIG. 11A. The prototype system is autogenous, saving casssette space. (FIG. 11B). […] Preliminary regulation of AAV with first generation CEMs in HEK293T Renilla cells using the cassette in FIG. 11B results are shown in FIG. 13, with multiplicity of infection (MOI)=number of viral genomes/cell.

[3] = tested on: AAV transgene expression (firefly luciferase); experiment: AAV regulation with first generation CEM, dual luciferase assay, HCT116 Renilla; settings: FIG. 12, 50, 200, 500, 1000 nM
Description: as §3, §4

CC[C@H](C(=O)N1CCCC[C@H]1C(=O)O[C@H](CCc1ccc(OC)c(OC)c1)c1cccc(OCC(=O)NCCOCCOCCNC(=O)C[C@@H]2N=C(c3ccc(Cl)cc3)c3c(sc(C)c3C)-n3c(C)nnc32)c1)c1cc(OC)c(OC)c(OC)c1 [CEM207, (R)-1-(3-((14-((S)-4-(4-Chlorophenyl)-2,3,9-trimethyl-6H-thieno[3,2-f][1,2,4]triazolo[4,3-a][1,4]diazepin-6-yl)-2,13-dioxo-6,9-dioxa-3,12-diazatetradecyl)oxy)phenyl)-3-(3,4-dimethoxyphenyl) propyl(S)-1-((S)-2-(3,4,5-trimethoxyphenyl)butanoyl) piperidine-2-carboxylate]
time after CEM treatment of highest CXCR4 protein expression (CXCR4 protein; 24, 48, 72 hrs time points): 48 h
fold change, CXCR4 protein (CXCR4 gRNA vs NT gRNA) (CXCR4 protein; 24 h time point, 5 nM): 2.4 fold
fold change, CXCR4 protein (CXCR4 gRNA vs NT gRNA) (CXCR4 protein; 24 h time point, 25 nM): 4.6 fold
fold change, CXCR4 protein (CXCR4 gRNA vs NT gRNA) (CXCR4 protein; 24 h time point, 50 nM): 4.3 fold
fold change, CXCR4 protein (CXCR4 gRNA vs NT gRNA) (CXCR4 protein; 48 h time point, 5 nM): 2.4 fold
fold change, CXCR4 protein (CXCR4 gRNA vs NT gRNA) (CXCR4 protein; 48 h time point, 25 nM): 4.9 fold
fold change, CXCR4 protein (CXCR4 gRNA vs NT gRNA) (CXCR4 protein; 48 h time point, 50 nM): 5.8 fold
fold change, CXCR4 protein (CXCR4 gRNA vs NT gRNA) (CXCR4 protein; 72 h time point, 5 nM): 1.7 fold
fold change, CXCR4 protein (CXCR4 gRNA vs NT gRNA) (CXCR4 protein; 72 h time point, 25 nM): 4.2 fold
fold change, CXCR4 protein (CXCR4 gRNA vs NT gRNA) (CXCR4 protein; 72 h time point, 50 nM): 3.8 fold
concentration of maximum CXCR4 cell membrane protein expression (CXCR4 protein; remained the same at 50 nM): 25 nM
IC50 (HCT116 cells; CEM207 alone, 4 days of exposure): 870 nM
IC50 (HCT116 cells; CEM207 in the background of 200 nM CEM87, 4 days of exposure): 359 nM
IC50 (HEK293T cells; CEM207 treatment alone, 4 days of exposure): 106 nM
IC50 (HEK293T cells; treated simultaneously with 200 nM CEM87, 4 days of exposure): 78.6 nM
activation of rAAV2 luciferase expression with viral titer escalation [1]: compatible with viral titer escalation

COc1ccc2c(c1)C(c1ccc(Cl)cc1)=N[C@@H](CC(=O)NCc1cn(CCOCCOCCOCCNC(=O)CCSCCC[C@@H]3/C=C(\C)C[C@H](C)C[C@H](OC)[C@H]4O[C@@](O)(C(=O)C(=O)N5CCCC[C@H]5C(=O)O[C@H](/C(C)=C/[C@@H]5CC[C@@H](O)[C@H](OC)C5)[C@H](C)[C@@H](O)CC3=O)[C@H](C)C[C@@H]4OC)nn1)c1nnc(C)n1-2 [CEM87, reference compound]
luminescence, fold change compared to no treatment [2]: dose dependent increase in luminscence
luminescence, fold change compared to no treatment [3]: dose dependent increase in luminscence
